Test results: patent US20170073371A1, “ANTIMICROBIAL PEPTIDES” (ROBERT BOSCH GESELLSCHAFT FÜR MEDIZINISCHE FORSCHUNG MBH, priority 2012, published 2017)
Where no end group is shown, it is not given here.

Key:
Escherichia coli [1] = experiment: Antimicrobial radial diffusion assay (inhibition zone diameter); assay type: cell-based; conditions: FIG. 1b, 1c
Experimental: (§1) The letters indicate the amino acids using the single-letter code. […] The diameter of the inhibition zones represents the antimicrobial activity; a diameter of 2.5 mm is the diameter of an empty punched well in an agar plate which contains only carrier fluid (negative control). The experiments were repeated at least three times, and the mean plus standard deviation is shown.
(§2) Antimicrobial radial diffusion assays for anaerobic bacteria were carried out as described previously (see Schröder et al.: “Reduction of disulfide bonds unmasks potent antimicrobial activity of human beta-defensin 1”, Nature, 469: 419-423 (2011)). In brief, the bacteria were anaerobically cultured (Oxoid AnaeroGen”, England) for 24 hours at 37° C. on Columbia agar plates, then inoculated into liquid trypticase soy broth (TSB) medium and cultured again for 24 hours. The bacterial cultures were then washed and diluted to an optical density (OD620 nm)=0.1, of which 150 μl was used for the effectiveness assay. Incubation occurred under anaerobic conditions in 10 ml 10 mM sodium phosphate having a pH of 7.4 with 0.3 mg/ml TSB pwder and 1% (w/v) low-EEO agarose (agarose with very low EEO value)(Appli-Chem) with 0 or 2 mM dithiothreitol (DTT, Sigma Aldrich), with 1 μg synthetic, oxidized hBD-1 (Peptide Institute, Japan) or synthetic peptides, for three hours. An overcoating gel having 6% (w/v) TSB powder, 1% agarose, and 10 mM sodium phosphate buffer (pH 7.4 or 5.7), with or without DTT, was placed onto the plates. After incubation for 48 hours at 37° C. the diameters of the inhibition zones were measured. The experiments were repeated at least three times.

[2] = tested on: Bifidobacterium adolescentis; experiment: as above; assay type: cell-based; conditions: for antimicrobial activity (diameter of inhibition zone): FIG. 1, radial diffusion
Experimental: as §1, §2

E. coli K12 = experiment: Radial diffusion assay, D- versus L-amino acid octapeptide (FIG. 3a); assay type: cell-based, Escherichia coli
Experimental: Antimicrobial radial diffusion assays for anaerobic bacteria were carried out as described previously (see Schröder et al.: “Reduction of disulfide bonds unmasks potent antimicrobial activity of human beta-defensin 1”, Nature, 469: 419-423 (2011)). In brief, the bacteria were anaerobically cultured (Oxoid AnaeroGen”, England) for 24 hours at 37° C. on Columbia agar plates, then inoculated into liquid trypticase soy broth (TSB) medium and cultured again for 24 hours. The bacterial cultures were then washed and diluted to an optical density (OD620 nm)=0.1, of which 150 μl was used for the effectiveness assay. Incubation occurred under anaerobic conditions in 10 ml 10 mM sodium phosphate having a pH of 7.4 with 0.3 mg/ml TSB pwder and 1% (w/v) low-EEO agarose (agarose with very low EEO value)(Appli-Chem) with 0 or 2 mM dithiothreitol (DTT, Sigma Aldrich), with 1 μg synthetic, oxidized hBD-1 (Peptide Institute, Japan) or synthetic peptides, for three hours. An overcoating gel having 6% (w/v) TSB powder, 1% agarose, and 10 mM sodium phosphate buffer (pH 7.4 or 5.7), with or without DTT, was placed onto the plates. After incubation for 48 hours at 37° C. the diameters of the inhibition zones were measured. The experiments were repeated at least three times. […]

[3] = tested on: (opportunistic) pathogenic microorganisms; experiment: Flow cytometric antimicrobial assay (membrane depolarization), all tested pathogens; assay type: cell-based; conditions: 50 μg/ml; E. coli, S. aureus, C. albicans, B. fragilis; FIG. 2
Experimental: (§3) The following peptides were investigated: modified octapeptide (SEQ ID NO. 4), wild type octapeptide (SEQ ID NO. 1), alanine-mutated octapeptide (SEQ ID NO. 7), and a heptapeptide (SEQ ID NO. 8) (each 50 μg/ml) were tested in a flow cytometric antimicrobial effectiveness assay against Escherichia coli, Staphylococcus aureus, Candida albicans, and Bacteroides fragilis. The letters once again indicate the respective amino acids in the one-letter code. The experiments were repeated twice in double batches, and the mean plus standard deviation is shown;
(§4) Flow cytometric antimicrobial assays with which the membrane depolarization of the bacteria and fungi were measured were carried out as previously described (see Nuding et al., “A flow cytometric assay to monitor antimicrobial activity of defensins and cationic tissue extracts,” Journal of Microbiological Methods, 65: 335-380 (2006)).
(§5) In brief, 1.5×10^6 cells per ml were incubated in 1:6-diluted Schaedler medium at 37° C. with peptides at a final volume of 50 μl. The defensins were dissolved in 0.01% acetic acid and were added to the bacterial/fungal suspensions at the final concentrations indicated. Bacterial or fungal suspensions that had been incubated with solvent (0.01% acetic acid) served here as controls for viability. After 90 minutes the suspensions were incubated for 10 minutes with 1 mg/ml of the membrane-potential-sensitive dye DiBAC4(3) ([bis-(1,3-dibutylbarbiturate)trimethine oxanol]) (Invitrogen, USA). The suspensions were centrifuged, and sediments resuspended in […] phosphate-buffered saline. The percentage of depolarized fluorescing bacteria or fungi in the suspension was determined using a FACSCalibur flow cytometer (Becton-Dickinson, USA) utilizing Cell Quest software (Becton-Dickinson). The experiments were repeated twice, each in duplicate.

[4] = Reversed-phase HPLC analysis of hydrophobicity; assay type: physicochemical; conditions: data not shown
Experimental: For analysis by high performance liquid chromatography (HPLC), the octapeptides were mixed with 0.1% (v/v) trifluoracetic acid (TFA) and analyzed with an Agilent 1200 system (Agilent) and a Synergi reversed phase (RP) column (250×4.6 mm, 4 μm, Phenomenex, Germany).
In further experiments a reversed-phase HPLC analysis was carried out in order to investigate the hydrophobicity of the tested peptides (data not shown).

Bacteroides fragilis = experiment: Flow cytometric antimicrobial assay (membrane depolarization); assay type: cell-based; conditions: 50 μg/ml; FIG. 2
Experimental: as §3, §4, §5

Candida albicans = experiment: as above; assay type: cell-based; conditions: 50 μg/ml; FIG. 2
Experimental: as §3, §4, §5

Escherichia coli [5] = experiment: as above; assay type: cell-based; conditions: 50 μg/ml; FIG. 2
Experimental: as §3, §4, §5

Staphylococcus aureus = experiment: as above; assay type: cell-based; conditions: 50 μg/ml; FIG. 2
Experimental: as §3, §4, §5

[6] = Schröder et al., Nature 469:419-423 (2011); cited from earlier work
[7] = tested on: commensal bacteria of the human intestinal flora; experiment: Antimicrobial radial diffusion assay of human beta-defensins at pH 7.4 or 5.7, with or without DTT; assay type: cell-based
Experimental: as §2
In the present case hBD-1 and its antimicrobial activity have been further investigated. For this, the antimicrobial activity of the three human beta-defensins hBD-1, -2, and -3 with respect to commensal bacteria of the human intestinal flora were tested under standard conditions (pH 7.4) and slightly acidic conditions (pH 5.7); under both conditions, reducing conditions were also tested by adding 2 mM of the chemical reducing agent dithiothreitol (DTT) to the growth medium.

Substance	antimicrobial activity (diameter of inhibition zone) (Escherichia coli [1])	antimicrobial activity (diameter of inhibition zone) [2]	effectiveness (depolarized bacteria or fungi) [3]	also measured
RGKAKACK [Cys6 exchanged, octapeptide with Cys6 exchanged for alanine]	increased the antimicrobial activity	activity was greatly decreased		
RGKAKCAK [Cys7 exchanged, octapeptide with Cys7 exchanged for alanine]	increased the antimicrobial activity	activity was greatly decreased		
RGKAKCCK (not fully specified (some residues); cysteine pairing not given here; also: termini modified in some versions, not given here)				activity compared with the peptide made up of L-amino acids (E. coli K12): weaker activity; activity compared with the peptide made up of L-amino acids ([2]; FIG. 3b): elevated activity
RGKAKCCK [wild type octapeptide, octapeptide of the eight terminal amino acids of the carboxy terminus of hBD-1]	also had antimicrobial activity	greater antimicrobial activity than the previously tested heptapeptide	only marginal in most cases	
ac-RGKAKCCK-NH2 (Ac-RGKAKCCK-NH2; cysteine pairing not given here) [modified octapeptide]	did not differ significantly by comparison with the wild type peptide	rose sharply		hydrophobicity (order of elution from RP column) [4]: highest hydrophobicity; activity (depolarized bacteria) (Bacteroides fragilis): but not with respect to Escherichia coli and Bacteroides fragilis; activity (depolarized fungi) (Candida albicans): outstanding activity; activity (depolarized bacteria) (Escherichia coli [5]): but not with respect to Escherichia coli and Bacteroides fragilis; activity (depolarized bacteria) (Staphylococcus aureus): outstanding activity
alanine-mutated octapeptide: alanine-mutated octapeptide; both cysteines exchanged (RGKAKAAK) [reference compound]	almost entirely shut down antimicrobial activity	brought activity to a complete standstill	only marginal in most cases	
hBD-1: human beta-defensin 1, obtained from Peptide Institute Inc. (DHYNCVSSGGQCLYSACPIFTKIQGTCYRGKAKCCK; disulfide (positions not given here); UniProt P60022 33-68, looked up)				antimicrobial activity under reducing conditions [6]: elevated antimicrobial activity; activation of antimicrobial activity by reduction ([7]; pH 5.7, 2 mM DTT, data not shown): activation was not observed; antimicrobial activity, effect of reduction ([7]; reducing conditions, 2 mM dithiothreitol (DTT) in growth medium, data not shown): became active by reduction; antimicrobial activity ([7]; standard conditions (pH 7.4), data not shown): largely inactive
hBD-3: human beta-defensin, obtained from Peptide Institute Inc. (GIINTLQKYYCRVRGGRCAVLSCLPKEEQIGKCSTRGRKCCRRKK; ends and bridges not checked; cysteine pairing not given here; UniProt P81534 23-67, looked up)				antimicrobial activity compared with the other two defensins ([7]; in most cases, tested commensals): strongest activity
wild type heptapeptide: heptapeptide that represents the seven terminal amino acids of hBD-1 (GKAKCCK) [reference compound]		highest activity	only marginal in most cases	
